Experimental data from publication PMC10451629, “Evaluation of the Effects of Heteroaryl Ethylene Molecules in Combination with Antibiotics: A Preliminary Study on Control Strains” (Antibiotics, 2023).
pIC50: −log10 of the molar value. ≈ marks a conversion by molar mass, not a printed value. Where “and” joins values, the source holds several entries; their conditions need not be identical. Equal entries are not always repeated. Where two headings read alike, the source gives them in different places.

Legend:
[1] = test system: S. aureus ATCC BAA-1556 USA300; experiment: Broth microdilution MIC; format: cell-based, Staphylococcus aureus; conditions: Staphylococcus aureus, S. aureus ATCC BAA-1556 USA300; substance alone
[2] = test system: K. pneumoniae ATCC 700603; experiment: Broth microdilution MIC; format: cell-based, Klebsiella pneumoniae; conditions: for MIC: substance alone
[3] = test system: S. aureus ATCC 29213; experiment: Broth microdilution MIC; format: cell-based; conditions: Staphylococcus aureus, ATCC29213, S. aureus ATCC 29213; substance alone; read-out: MIC
[4] = test system: E. faecalis ATCC 29212; experiment: Broth microdilution MIC; format: cell-based, Enterococcus faecalis; conditions: for MIC: substance alone
[5] = test system: E. coli ATCC 25922; experiment: Broth microdilution MIC; format: cell-based; conditions: Escherichia coli, ATCC25922, substance alone, read-out: MIC
[6] = test system: all tested strains; experiment: Broth microdilution MIC, summary over all tested strains; format: cell-based; conditions: for MIC reduction in combination with PB4: all tested bacterial strains, antibiotic + PB4
[7] = test system: A. baumannii ATCC 17978; experiment: Broth microdilution MIC; format: cell-based; conditions: Acinetobacter baumannii, ATCC17978, substance alone
[8] = test system: S. aureus ATCC 12598; experiment: Broth microdilution MIC; format: cell-based, Staphylococcus aureus; conditions: Staphylococcus aureus, ATCC12598, S. aureus ATCC 12598; substance alone; read-out: MIC
[9] = test system: S. enterica ATCC 14028; experiment: Broth microdilution MIC; format: cell-based; conditions: Salmonella enterica, ATCC14028, substance alone
[10] = test system: P. aeruginosa ATCC 27853; experiment: Broth microdilution MIC; format: cell-based, Pseudomonas aeruginosa; conditions: substance alone
[11] = test system: CaCo2 colon-rectal cancer cell line; design: method as in in-house dataset; Log(IC50) 48h: unit not given here; conditions: in-house dataset previously tested by the authors' groups, ref in-house dataset, cited from earlier work
[12] = test system: Gram-positive strains; experiment: Broth microdilution MIC, summary over Gram-positive strains; format: cell-based
[13] = test system: CaCo-2 (ATCC HTB-37) colon–rectal cancer cell line; experiment: MTT cytotoxicity assay on CaCo-2 cells; format: cell-based, human; conditions: for pIC50: Homo sapiens, CaCo-2 cell line, MTT; for Percentage of cell growth, antibiotic / Percentage of cell growth, antibiotic + PB4 0.2 µM: CaCo-2
Experimental: To fully assess the biological activity of the new molecules, they were tested at different concentrations on the CaCo-2 (ATCC HTB-37) colon–rectal cancer cell line. These human cancer cells were exposed to compound solutions ranging in concentration from 100 µM to 0.01 µM. As a reference compound for these assays, we used 5-Fluorouracil (5-FU), a pyrimidine analog from the antimetabolite family.
The MTT assay was also performed for the selected antibiotics to evaluate the effect of their combined treatment with PB4.
To evaluate the effect of the heteroaryl ethylene compounds and the antibiotics, an MTT ([3-(4,5-dimethylthiazol-2-yl)-2,5-diphenyltetrazolium bromide]) assay was performed as previously described. […] Both concentrations were also tested in combination with PB4 0.2 µM. All antibiotics were provided by Thermo Scientific^TM Oxoid^TM, Basingstoke, UK. Twenty-four hours after plating, the cells were treated with 20 μL of each solution. Untreated cells were used as controls. […] The IC50 values were calculated by nonlinear regression analysis using GraphPad Prism 6.0 software.

[14] = Klebsiella pneumoniae, ATCC700603, K. pneumoniae ATCC 700603, read-out: MIC
[15] = Caco-2, 24 h, 24 h of treatment, read-out: IC50 at 24 h
[16] = Caco-2, 48 h, 48 h of treatment, read-out: IC50 at 48 h
[17] = Enterococcus faecalis, ATCC29212, E. faecalis ATCC 29212, read-out: MIC
[18] = Pseudomonas aeruginosa, ATCC27853, P. aeruginosa ATCC 27853, read-out: MIC

SMILES	MIC [1]	MIC [3]	MIC [5]	MIC reduction in combination with PB4 [6]	MIC [7]	MIC [8]	MIC [9]	MIC [2, 14]	pIC50 [13, 15]	pIC50 [13, 16]	MIC [4, 17]	MIC [10, 18]	other results
CC1(C)S[C@@H]2[C@H](NC(=O)[C@H](N)c3ccccc3)C(=O)N2[C@H]1C(=O)O [Ampicillin, ampicillin, reference compound]	8 µg/mL (≈ 22.9 µM)	2 µg/mL (≈ 5.72 µM)	8 µg/mL (≈ 22.9 µM)	no significant MIC reductions	32 µg/mL (≈ 91.6 µM)	0.125 µg/mL (≈ 0.358 µM)	2 µg/mL (≈ 5.72 µM)	–	–	–	–	–	MIC of antibiotic in combination with PB4 ([2]; K. pneumoniae ATCC 700603, sub-MIC PB4): 2 µg/mL; MIC ([2]; K. pneumoniae ATCC 700603): 8 mg/L (≈ 22.9 µM); MIC ([2]; K. pneumoniae ATCC 700603, listed as AMP): >128 mg/L; MIC of antibiotic in combination with PB4 ([4]; E. faecalis ATCC 29212, PB4 at fixed 0.125 μg/mL (0.24 μM), a quarter of an MIC value): 1 µg/mL; MIC ([4]; E. faecalis ATCC 29212): 4 mg/L (≈ 11.4 µM); MIC ([4]; E. faecalis ATCC 29212, listed as AMP): 0.25 mg/L (≈ 0.715 µM); MIC ([10]; P. aeruginosa ATCC 27853): 2 mg/L (≈ 5.72 µM); MIC ([10]; P. aeruginosa ATCC 27853, listed as AMP): >128 mg/L
COc1ccc(/C=C/c2cccc(/C=C/c3ccc(OC)cc3)[n+]2C)cc1 [BCM6]	8 µg/mL and 16.4 µM	4 µg/mL and 8.2 µM	128 µg/mL and 264 µM	–	64 µg/mL and 132 µM	4 µg/mL and 8.23 µM	> 128 µg/mL and > 264 µM	> 128 µg/mL and > 264 µM	6.80	6.74	32 µg/mL and 65.9 µM	> 128 µg/mL and > 264 µM	pIC50 ([11]; 48h): 4.91; Log(IC50) 48h [11]: 1.09; MIC [12]: 4 to 8 µg/mL
CC[C@H]1OC(=O)[C@H](C)[C@@H](O[C@H]2C[C@@](C)(OC)[C@@H](O)[C@H](C)O2)[C@H](C)[C@@H](O[C@@H]2O[C@H](C)C[C@H](N(C)C)[C@H]2O)[C@](C)(O)C[C@@H](C)C(=O)[C@H](C)[C@@H](O)[C@]1(C)O [Erythromycin, erythromycin]	32 µg/mL (≈ 43.6 µM)	0.5 µg/mL (≈ 0.681 µM)	–	no significant MIC reductions	–	0.5 µg/mL (≈ 0.681 µM)	–	–	–	–	2 mg/L (≈ 2.73 µM)	–	Percentage of cell growth, antibiotic ([13]; antibiotic alone at MIC for E. faecalis ATCC 29212, 24 h): 148.2%; Percentage of cell growth, antibiotic ([13]; antibiotic alone at MIC for E. faecalis ATCC 29212, 48 h): 269.0%; Percentage of cell growth, antibiotic ([13]; antibiotic alone at sub-MIC (half-MIC), 24 h): 159.5%; Percentage of cell growth, antibiotic ([13]; antibiotic alone at sub-MIC (half-MIC), 48 h): 280.6%; Percentage of cell growth, antibiotic + PB4 0.2 µM ([13]; antibiotic at MIC + PB4 0.2 µM, 24 h): 133.6%; Percentage of cell growth, antibiotic + PB4 0.2 µM ([13]; antibiotic at MIC + PB4 0.2 µM, 48 h): 117.5%; Percentage of cell growth, antibiotic + PB4 0.2 µM ([13]; antibiotic at sub-MIC + PB4 0.2 µM, 24 h): 124.9%; Percentage of cell growth, antibiotic + PB4 0.2 µM ([13]; antibiotic at sub-MIC + PB4 0.2 µM, 48 h): 155.8%
C[n+]1c(/C=C/c2ccc(N(c3ccccc3)c3ccccc3)cc2)cccc1/C=C/c1ccc(N(c2ccccc2)c2ccccc2)cc1 [GC-VI-10]	128 µg/mL and 169 µM	128 µg/mL and 169 µM	> 128 µg/mL and > 169 µM	–	> 128 µg/mL and > 169 µM	64 µg/mL and 84.4 µM	> 128 µg/mL and > 169 µM	> 128 µg/mL and > 169 µM	5.87	6.00	4 µg/mL and 5.2 µM	> 128 µg/mL and > 169 µM	MIC levels over all tested strains ([6]; summary in text over all tested strains): high MIC levels
